We go through two compounds from patent US10570184B2, “GLP-1/glucagon receptor co-agonists for medical use” (Novo Nordisk A/S, priority 2014, dated 2020).

In test [1] the target is T1, human GLP-1 receptor (Homo sapiens, UniProt P43220).
T1 construct: expressed in transfected cells; host or cells: membranes of BHK cells (parent BHKTS13), clone FCW467-12A
The test is described as follows: Assay (II)(a) GLP-1 receptor binding, 125I-GLP-1 displacement SPA on BHK membranes. The following applies: without presence of serum albumin; read-out: GLP-1R IC50 (nM) [Assay (II)(a)]. The method, then: The GLP-1 receptor (GLP-1R) binding is a measure of affinity of a compound for the human GLP-1 receptor. The receptor binding of each compound to the human GLP-1 receptor was measured in a displacement binding assay. In this type of assay a labelled ligand (in this case 125I-GLP-1) is bound to the receptor. Each derivative was added in a series of concentrations to isolated membranes containing the human GLP-1 receptor and displacement of the labelled ligand was monitored. The receptor binding was reported as the concentration at which half of the labelled ligand was displaced from the receptor, the IC50 value. In order to test the binding of the derivatives to albumin, the assay may be performed in a very low concentration of serum albumin (max. 0.001% final assay concentration) as well as in the presence of a (considerably) higher concentration of serum albumin (2.0% final assay concentration). An increase of the IC50 value, in the presence of serum albumin indicates an affinity to serum albumin and represents a method to predict a protracted pharmacokinetic profile of the test substance in animal models. The following chemicals were used in the assay: DMEM w/o phenol red (Gibco 11880-028), Pen/strep (Invitrogen 15140-122), G418 (Invitrogen 10131-027), 1 M Hepes (Gibco 15630), EDTA (Invitrogen 15575-038), PBS (Invitrogen 14190-094), fetal calf serum (Invitrogen 16140-071), EGTA, MgCl2 (Merck 1.05832.1000), Tween 20 (Amresco 0850C335), SPA particles (wheat germ agglutinin (WGA) SPA beads, Perkin Elmer RPNQ0001), [125I]-GLP-1]-(7-36)NH2 (produced in-house), OptiPlate™-96 (Perkin Elmer). Buffer 1 consisted of 20 mM Na-HEPES plus 10 mM EDTA and pH was adjusted to 7.4. Buffer 2 consisted of 20 mM Na-HEPES plus 0.1 mM EDTA and pH was adjusted to 7.4. Assay buffer consisted of 50 mM HEPES supplemented with 5 mM EGTA, 5 mM MgCl2, 0.005% Tween 20 and pH was adjusted to 7.4. The cells used in this assay (clone FCW467-12A) were BHK cells with BHKTS13 as a parent cell line. The cells express the human GLP-1 receptor. The cells were grown at 5% CO2 in DMEM, 10% fetal calf serum, 1% Pen/Strep (Penicillin/Streptomycin) and 1.0 mg/ml of the selection marker G418. To make a membrane preparation the cells were grown to approximately 80% confluence. The cells were washed twice in phosphate-buffered saline and harvested. The cells were pelleted using a brief centrifugation and the cell pellet was kept on ice. The cell pellet was homogenised with ULTRA-THURRAX dispersing instrument for 20-30 seconds in a suitable amount of buffer 1 (e.g., 10 ml). The homogenate was centrifuged for 15 minutes. The pellet was re-suspended (homogenised) in 10 ml buffer 2 and centrifuged. This step was repeated once more. The resulting pellet was re-suspended in buffer 2 and the protein concentration was determined. The membranes were aliquoted and stored at minus 80° C. • 1. For the receptor binding assay, 50 μl of the assay buffer was added to each well of an assay plate. • 2. Test compounds were serially diluted to give the following concentrations: 8×10EE-7 M, 8×10EE-8 M, 8×10EE-9 M, 8×10EE-10 M, 8×10EE-11 M, 8×10EE-12 M and 8×10EE-13 M. Twenty-five μl were added to appropriate wells in the assay plate. • 3. Cell membrane aliquots were thawed and diluted to their working concentration. Fifty μl were added to each well in the assay plate. • 4. WGA SPA beads were suspended in assay buffer at 20 mg/ml. The suspension was diluted to 10 mg/ml in assay buffer just prior to addition to the assay plate. Fifty μl were added to each well in the assay plate. • 5. The incubation was started by adding 25 μl of […] solution of [125I]-GLP-1]-(7-36)NH2 to each well of the assay plate. A 25 μl aliquot was reserved for measuring total counts/well. • 6. The assay plate was incubated for 2 h at 30° C. • 7. The assay plate was centrifuged for 10 min. • 8. The assay plate was read in a Perkin Elmer TopCount NXT instrument. […]

Test [2] concerns the target T1, human GLP-1 receptor. The test is described as follows: Assay (I)(a) GLP-1 receptor activation, CRE luciferase reporter gene assay in BHK cells. In kind it is cell-based. The settings on record: without presence of serum albumin; read-out: GLP-1R EC50 (pM) [Assay (I)(a)]. The method, then: The purpose of this example was to test the activity or potency, of the glucagon derivatives of the invention, in vitro. The in vitro potency is the measure of human GLP-1 receptor (GLP-1R) or glucagon receptor (glucagonR) activation, respectively, in a whole cell assay. In vitro potency was determined by measuring the response of human GLP-1 or glucagon receptor, respectively, in a reporter gene assay. The assay was performed in a stably transfected BHK cell line that expresses either the human GLP-1 receptor or the human glucagon receptor and contains the DNA for the cAMP response element (CRE) coupled to a promoter and the gene for firefly luciferase (CRE luciferase). […] When assay incubation was completed, the luciferase substrate (luciferin) was added and the enzyme converted luciferin to oxyluciferin and produces bioluminescence. The luminescence was measured as the readout for the assay. The cells used in this assay (clone FCW467-12A/KZ10-1) were BHK cells with BHKTS13 as a parent cell line. The cells were derived from a clone (FCW467-12A) that expresses the human GLP-1 receptor and were established by further transfection with CRE luciferase to obtain the current clone. The cells were cultured at 5% CO2 in DMEM medium with 10% FBS, 1×GlutaMAX, 1 mg/ml G418, 240 nM MTX (methotrexate) and 1% pen/strep (penicillin/streptomycin). They were aliquoted and stored in liquid nitrogen. Before each assay, an aliquot was taken up and washed three times in PBS before being suspended at the desired concentration in assay medium. For 96-well plates the suspension was made to give a final concentration of 5×10EE3 cells/well. The following chemicals were used in the assay: Pluronic F-68 (10%) (Gibco 2404), ovalbumin (Sigma A5503), DMEM w/o phenol red (Gibco 11880-028), 1 M Hepes (Gibco 15630), Glutamax 100× (Gibco 35050) and steadylite plus (PerkinElmer 6016757). Assay Medium consisted of DMEM w/o phenol red, 10 mM Hepes, 1× GlutaMAX, 2% Ovalbumin and 0.2% Pluronic F-68. Cell stocks were thawed in a 37° C. water bath. Cells were washed three times in PBS. The cells were counted and adjusted to 5×10EE3 cells/50 μl (1×10EE5 cells/ml) in Assay Medium. A 50 μl aliquot of cells was transferred to each well in the assay plate. Stocks of the test compounds and reference compounds were diluted to a concentration of […] in Assay Medium. Compounds were diluted 10-fold to give the following concentrations: 2×10EE-6 M, 2×10EE-7 M, 2×10EE-8 M; 2×10EE-9 M, 2×10EE-10 M, 2×10EE-11 M, 2×10EE-12 M and 2×10EE-13 M. For each compound a blank assay medium control was also included. A 50 μl aliquot of compound or blank was transferred from the dilution plate to the assay plate. Compounds were tested at the following final concentrations: 1×10EE-6 M, 1×10EE-7 M, 1×10EE-8 M; 1×10EE-9 M, 1×10EE-10 M, 1×10EE-11 M and 1×10EE-12 M and 1×10EE-13 M. The assay plate was incubated for 3 h in a 5% CO2 incubator at 37° C. The assay plate was removed from the incubator and allowed to stand at room temperature for 15 min. A 100 μl aliquot of steadylite plus reagent was added to each well of the assay plate (reagent is light sensitive). Each assay plate was covered with aluminum foil to protect it from light and shaken for 30 min at room temperature. Each assay plate was read in a Perkin Elmer TopCount NXT instrument. The data from the TopCount instrument was transferred to GraphPad Prism software. The software performed a non-linear regression (log(agonist) vs response-Variable slope (four parameter)). EC50 values were calculated by the software and reported in pM.
(A reporter such as luciferase makes a cellular process visible.)

Starred links: 1 amine or outer side, 2 acyl side, 3 side chain; linkers in the order of their positions; H or OH if unused. Non-standard residues stand in square brackets, D forms with d. Residues, ends and D or L forms follow the SMILES beside them. Groups on a side chain read outwards from the residue. *: point of attachment. C18 diacid = O=C(O)CCCCCCCCCCCCCCCCC(=O)*; γGlu = O=C(O)[C@H](CCC(=O)[*:2])N[*:1]; AEEA = NCCOCCOCC(=O)O; Aib = CC(C)(N)C(=O)O

T1 sequence (P43220 24-463): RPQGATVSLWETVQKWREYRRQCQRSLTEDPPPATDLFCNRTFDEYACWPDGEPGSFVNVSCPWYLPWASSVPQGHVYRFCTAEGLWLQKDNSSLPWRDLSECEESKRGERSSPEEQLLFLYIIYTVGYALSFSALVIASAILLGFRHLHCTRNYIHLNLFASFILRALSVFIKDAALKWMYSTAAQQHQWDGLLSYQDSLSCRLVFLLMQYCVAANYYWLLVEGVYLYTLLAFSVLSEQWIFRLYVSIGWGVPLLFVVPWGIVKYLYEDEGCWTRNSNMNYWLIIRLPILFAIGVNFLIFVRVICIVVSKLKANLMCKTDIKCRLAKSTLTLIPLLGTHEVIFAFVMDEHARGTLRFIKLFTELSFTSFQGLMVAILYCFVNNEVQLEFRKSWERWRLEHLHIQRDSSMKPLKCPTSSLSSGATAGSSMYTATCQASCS

As usually defined, the IC50 is the concentration that inhibits the measured activity by half. In the case of `CC[C@H](C)[C@H](NC(=O)[C@H](CC(C)C)NC(=O)[C@H](Cc1c[nH]c2ccccc12)NC(=O)[C@H](CCC(N)=O)NC(=O)[C@@H](NC(=O)[C@H](Cc1ccccc1)NC(=O)[C@H](CC(=O)O)NC(=O)[C@H](CCC(N)=O)NC(=O)[C@H](C)NC(=O)[C@H](CCCNC(=N)N)NC(=O)[C@H](CCCNC(=N)N)NC(=O)[C@H](C)NC(=O)[C@H](CC(=O)O)NC(=O)[C@H](CC(C)C)NC(=O)[C@H](Cc1ccc(O)cc1)NC(=O)[C@H](CCCCN)NC(=O)[C@H](CO)NC(=O)[C@@H](NC(=O)[C@H](CC(=O)O)NC(=O)[C@H](CO)NC(=O)[C@@H](NC(=O)[C@H](Cc1ccccc1)NC(=O)[C@@H](NC(=O)CNC(=O)[C@H](CCC(N)=O)NC(=O)C(C)(C)NC(=O)[C@@H](N)Cc1c[nH]cn1)[C@@H](C)O)[C@@H](C)O)C(C)C)C(C)C)C(=O)N[C@@H](CCCCNC(=O)CC[C@H](NC(=O)COCCOCCNC(=O)COCCOCCNC(=O)CC[C@H](NC(=O)CC[C@H](NC(=O)CCCCCCCCCCCCCCCCC(=O)O)C(=O)O)C(=O)O)C(=O)O)C(=O)N[C@H](C(N)=O)[C@@H](C)O` [Chem. 39, N^ε28-[(4S)-4-carboxy-4-[[2-[2-[2-[[2-[2-[2-[[(4S)-4-carboxy-4-[[(4S)-4-carboxy-4-(17-carboxyheptadecanoylamino)butanoyl]amino]butanoyl]amino]ethoxy]ethoxy]acetyl]amino]ethoxy]ethoxy]acetyl]amino]butanoyl]-[Aib2,Val10,Ala16,Ile27,Lys28]-Glucagon amide] (H-H[Aib]QGTFTSDVSKYLDARRAQDFVQWLIK([γGlu-AEEA-AEEA-γGlu-γGlu-C18 diacid])T-NH2; N-terminus assumed), the IC50 in test [1] is 0.1 nM.

The term EC50 denotes the concentration giving half of the maximal effect. For `CC[C@H](C)[C@H](NC(=O)[C@H](CC(C)C)NC(=O)[C@H](Cc1c[nH]c2ccccc12)NC(=O)[C@H](CCC(N)=O)NC(=O)[C@@H](NC(=O)[C@H](Cc1ccccc1)NC(=O)[C@H](CC(=O)O)NC(=O)[C@H](CCC(N)=O)NC(=O)[C@H](C)NC(=O)[C@H](CCCNC(=N)N)NC(=O)[C@H](CCCNC(=N)N)NC(=O)[C@@H](NC(=O)[C@H](CC(=O)O)NC(=O)[C@H](CC(C)C)NC(=O)[C@H](Cc1ccc(O)cc1)NC(=O)[C@H](CCCCN)NC(=O)[C@H](CO)NC(=O)[C@H](CC(C)C)NC(=O)[C@H](CC(=O)O)NC(=O)[C@H](CO)NC(=O)[C@@H](NC(=O)[C@H](Cc1ccccc1)NC(=O)[C@@H](NC(=O)CNC(=O)[C@H](CCC(N)=O)NC(=O)C(C)(C)NC(=O)[C@@H](N)Cc1c[nH]cn1)[C@@H](C)O)[C@@H](C)O)C(C)C)C(C)C)C(=O)N[C@@H](CCCCNC(=O)CC[C@H](NC(=O)COCCOCCNC(=O)COCCOCCNC(=O)CC[C@H](NC(=O)CC[C@H](NC(=O)CCCCCCCCCCCCCCCCC(=O)O)C(=O)O)C(=O)O)C(=O)O)C(=O)N[C@H](C(N)=O)[C@@H](C)O` [Chem. 40, N^ε28-[(4S)-4-carboxy-4-[[2-[2-[2-[[2-[2-[2-[[(4S)-4-carboxy-4-[[(4S)-4-carboxy-4-(17-carboxyheptadecanoylamino)butanoyl]amino]butanoyl]amino]ethoxy]ethoxy]acetyl]amino]ethoxy]ethoxy]acetyl]amino]butanoyl]-[Aib2,Leu10,Val16,Ile27,Lys28]-Glucagon amide] (H-H[Aib]QGTFTSDLSKYLDVRRAQDFVQWLIK([γGlu-AEEA-AEEA-γGlu-γGlu-C18 diacid])T-NH2; N-terminus assumed), the EC50 in test [2] was determined as 3 pM.
